The values below come from patent US20140363486A1, “METHODS FOR REDUCING OR ALTERING SCAR FORMATION” (Prelief, Inc., priority 2007, published 2014).

For assay [1], the system named is surgical wounds resulting from double knee replacement operations. Nature of the assay: 20-patient clinical study, surgical wounds from double knee replacement operations, one leg treated. The format is in vivo, human. An excerpt:
FIGS. 2a-2d are black and white photocopies of the color photographs of the knees of another human subject. They received simultaneous bilateral total knee replacements. […] Their left leg (on the right side of the photographs) received no CGP treatment.
FIGS. 2a, 2b, 2c and 2d, which are black and white photocopies of the color photographs of the knees of one of the 20 human subjects, illustrate the exemplary results from the clinical study. The subject received simultaneous bilateral total knee replacements. […] Their left leg (on the right side of the photographs) received no CGP treatment. Since the commencement of the treatment, 2 ml of Cellerity® 10 lotion was topically applied to the wounds of the knee surgeries twice daily everyday and will continue for 6 consecutive weeks.
The untreated leg, in contrast, has deep, wandering scars that are almost chasms in their depth and raw openness.
In contrast, SteriStripes were required to be applied to the untreated leg and continued for an additional 6 days.
In addition, two subjects of the first five subjects enrolled in the double knee replacement clinical study described above reported they felt “less heat” in their knee incision site treated with CGP than in the untreated knee site during the early weeks of post operative recovery.

Assay [2] relates to wounds resulting from an excision surgery to the nose. Nature of the assay: Bilateral surgical nose excision wounds, one wound treated. The format is in vivo, human. To be noted: left-side wound. An excerpt: FIGS. 3a-3f illustrate the wound healing effect of a glycerophosphate salt on wounds resulting from an excision surgery, e.g., to the nose. A subject received two surgically inflicted wounds to their nose occasioned by removal of benign growths. […] Per physician's request, Neosporin® was applied to both wounds for one week, and Cellerity® was applied topically to the worst of the two wounds, i.e., the left-side surgical wound (on the right side of the photographs), twice daily. The subject was instructed to return to the laboratory for weekly observations.

Assay [3] concerns burn wound to the inner forearm. Nature of the assay: Burn wound to the inner forearm, right side of the wound treated. The format is in vivo, human. An excerpt: Color variations in the background of the photos are an artifact of the time of the day and the location when the pictures were taken.
FIGS. 4a-4f illustrate the wound healing effect of a glycerophosphate salt on a burn wound to the inner forearm of a human subject. […] The left-side of the wound received no treatment.

For assay [4], the system named is rhino mucosal passage inflammation. Nature of the assay: Observation of low CGP concentrations on rhino mucosal passage inflammation. Type of assay: in vivo. To be noted: lower concentrations, between 1% and 2% by weight. An excerpt: In one embodiment of the present invention, an effective amount of a glycerophosphate salt, in a form of dry powder, granules, or gel is applied directly to the wound via spray, physical transfer by finger or implement to form a coating on the wound. The coating can contain a final local concentration of the glycerophosphate salt of about 0.5%-100% by weight. For example, the final local concentration of the glycerophosphate salt can be about 0.5% to about 5%, about 5% to about 15%, about 15% to about 25%, about 25% to about 35%, about 35% to about 45%, about 45% to about 55%, about 55% to about 65%, about 65% to about 75%, about 75% to about 85%, or about 85% to about 100%, by weight.

As to calcium glycerophosphate [CGP], the “healing of the surgical wound / surgical scar” value in assay [1] (Cellerity 10 lotion (10% (w/w) CGP), 2 ml twice daily from approx. 72 hours post operation, up to 14 days post operation, vs untreated leg) is given as “healed dramatically better”. The “swelling and continuing pale inflammation” value in assay [1] (Cellerity 10 lotion twice daily, 14 days post operation, observed in the untreated leg) was “showed neither”. Also, the “need for SteriStrips post staple removal” value in assay [1] (treated leg, the untreated leg required SteriStrips for an additional 6 days) is listed as “alleviated the need for application of SteriStrips”. In addition, the “heat felt in the knee incision site” value in assay [1] (two of the first five subjects enrolled, treated vs untreated knee site, early weeks of post operative recovery) is “less heat”. The wound appearance result was “appeared less deep than it was a week ago” in assay [2] (after 6 days of CGP treatment); “appeared significantly advanced” in assay [2] (after 16 days of CGP treatment); “healed, fully recolonized with epidermal skin” in assay [2] (after 30 days of CGP treatment); “completely healed” in assay [2] (after 36 days of CGP treatment); “completely healed” in assay [2] (after 51 days of CGP treatment). In addition, in assay [2] (after one day of treatment, Cellerity (7.5% (w/w) CGP) twice daily, Neosporin on both wounds for one week), the “wound healing, subject's report” value was “almost immediate apparent change in wound healing in favor of the CGP treated site”. The “time at which the wound healing improvement effect was first observed” value in assay [3] (Cellerity lotion (7.5% (w/w) CGP) twice daily for the first three days, from 24 hours post infliction) came to 3 days. For the same substance, the wound status result in assay [3] (after 16 days of CGP treatment, 7.5% lotion for three days, then 37% (w/w) CGP paste, the untreated side still had a pinkish color) is “completely healed and disappeared”. In addition, the “effect on apparent rhino mucosal passage inflammation” value in assay [4] is given as “favorably affect”.
